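GI50 marks 50% less growth. At the TGI there is no net growth.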
How the values were obtained:
Assay in all cases: NCI-60 cell line screen, 384-well format; in the data active = GI50 below about 0.43 µM; inactive = the rest
ACHN renal = system: ACHN renal
CCRF-CEM leukemia = system: CCRF-CEM leukemia
DU-145 prostate = system: DU-145 prostate
HCT-116 colon = system: HCT-116 colon
HCT-15 colon = system: HCT-15 colon
HOP-62 NSCLC = system: HOP-62 NSCLC
IGROV1 ovarian = system: IGROV1 ovarian
K-562 leukemia = system: K-562 leukemia
MCF7 breast = system: MCF7 breast
MDA-MB-435 melanoma = system: MDA-MB-435 melanoma
NCI-H226 lung = system: NCI-H226 lung
NCI-H460 NSCLC = system: NCI-H460 NSCLC
OVCAR-5 ovarian = system: OVCAR-5 ovarian

C[C@H](NC(=O)c1c(C(F)F)nn(C)c1Oc1cccc(C(F)(F)F)c1)c1ccc(C(=O)O)cc1
> 100 µM: TGI (ACHN renal) | TGI (CCRF-CEM leukemia) | TGI (DU-145 prostate) | TGI (HCT-116 colon) | TGI (HCT-15 colon) | TGI (HOP-62 NSCLC) | TGI (IGROV1 ovarian) | TGI (K-562 leukemia) | TGI (MCF7 breast) | TGI (MDA-MB-435 melanoma) | TGI (NCI-H226 lung) | TGI (NCI-H460 NSCLC) | TGI (OVCAR-5 ovarian)
inactive: GI50 (ACHN renal) > 100 µM | GI50 (CCRF-CEM leukemia) > 100 µM | GI50 (DU-145 prostate) > 100 µM | GI50 (HCT-116 colon) > 100 µM | GI50 (HCT-15 colon) > 100 µM | GI50 (HOP-62 NSCLC) > 100 µM | GI50 (IGROV1 ovarian) > 100 µM | GI50 (K-562 leukemia) > 100 µM | GI50 (MCF7 breast) > 100 µM | GI50 (MDA-MB-435 melanoma) > 100 µM | GI50 (NCI-H226 lung) > 100 µM | GI50 (NCI-H460 NSCLC) > 100 µM | GI50 (OVCAR-5 ovarian) > 100 µM
